{
  "source": "patent US20240261250A1",
  "about": "(priority 2020, published 2024)",
  "key": {"SH-SY5Y cells [1]": {"tested_on": "SH-SY5Y cells"}, "SH-SY5Y cells [2]": {"tested_on": "SH-SY5Y cells", "assay_type": "cell-based"}, "SH-SY5Y cells [3]": {"tested_on": "SH-SY5Y cells", "assay_type": "cell-based", "remark": "listed apart in the source"}, "SH-SY5Y cells [4]": {"tested_on": "SH-SY5Y cells", "assay_type": "cell-based", "remark": "listed apart in the source"}},
  "data": [
    {"smiles": "CO/C1=C\\C(C)=C\\[C@@H](C)[C@@H](O)[C@@H](C)C/C(C)=C/C=C/[C@H](OC)[C@@H]([C@@H](C)[C@@H](O)[C@H](C)[C@@]2(O)C[C@@H](O)[C@H](C)[C@@H](C(C)C)O2)OC1=O", "note": "[Baf-A1, Bafilomycin A1]", "values": [
      {"measurement": "cell viability", "setting": "SH-SY5Y cells [1]", "value": "not significantly different"},
      {"measurement": "effect on the protection by PAO (cell viability)", "setting": "SH-SY5Y cells [1]", "value": "decreased the protection effect of PAO"}
    ]},
    {"smiles": "O[C@H]1[C@H](O)[C@@H](O)[C@@H]2O[C@@H]2[C@@H]1O", "note": "(racemic) [CBE, Conduritol B Epoxide]", "values": [
      {"measurement": "cell viability", "setting": "SH-SY5Y cells [1]", "value": "significantly inhibited"},
      {"measurement": "immunofluorescence intensity of Lyso-tracker", "setting": "SH-SY5Y cells [2]", "value": "increased significantly"},
      {"measurement": "number of Lyso-tracker labeled positive cells", "setting": "SH-SY5Y cells [2]", "value": "significantly increased"},
      {"measurement": "concentration of GlcCer of various side chains in cells", "setting": "SH-SY5Y cells [3]", "value": "much higher"}
    ]},
    {"smiles": "CCN(CC)CCO[C@H]1CC[C@@]2(C)C(=CC[C@@H]3[C@@H]2CC[C@]2(C)C(=O)CC[C@@H]32)C1", "note": "[U18666A]", "values": [
      {"measurement": "Filipin staining fluorescence intensity", "setting": "SH-SY5Y cells [4]", "value": "enhanced"}
    ]},
    {"smiles": "COc1ncc(-c2ccc3nc(N)n(-c4ccc(N5CCOCC5)cc4)c3c2)cc1S(=O)(=O)Nc1ccccc1F", "note": "[A1, 5-(2-amino-1-(4-(4-morpholinyl)phenyl)-1H-benzimidazol-6-yl)-N-(2-fluorophenyl)-2-methoxy-3-pyridinesulfonamide]", "values": [
      {"measurement": "Lyso-tracker labeled positive cells", "setting": "SH-SY5Y cells [2]", "value": "fewer Lyso-tracker labeled positive cells"}
    ]}
  ]
}
